Values after ≈ are worked out from the molar mass of the structure shown.
Key:
Assay type in all cases: cell-based
[1] = test system: P-388 (suspension culture of a lymphoid neoplasm from DBA/2 mouse); experiment: Cytotoxic activity screening, P-388 cells; conditions: three days of incubation, approximate IC50 vs control growth; for IC50: Mus musculus, P388, 72 h
Method: (§1) Cell Cultures. Cells were maintained in logarithmic phase of growth in Eagle's Minimum Essential Medium, with Earle's Balanced Salts, with 2.0 mM L-glutamine, with non-essential amino acids, without sodium bicarbonate (EMEM/neaa); supplemented with 10% Fetal Calf Serum (FCS), 10^−2 M sodium bicarbonate and 0.1 g/l penicillin-G+streptomycin sulfate.
(§2) A simple screening procedure has been carried out to determine and compare the antitumour activity of these compounds, using an adapted form of the method described by Bergeron et al (1984). The tumour cell line employed have been P-388 (suspension culture of a lymphoid neoplasm from DBA/2 mouse), A-549 (monolayer culture of a human lung carcinoma), HT-29 (monolayer culture of a human colon carcinoma) and MEL-28 (monolayer culture of a human melanoma).
P-388 cell were seeded into 16 mm wells at 1×10^4 cells per well in 1 ml aliquots of MEM 5FCS containing the indicated concentration of drug. A separate set of cultures without drug was seeded as control growth to ensure that cells remained in exponential phase of growth. All determinations were carried out in duplicate.

[2] = test system: A-549 (monolayer culture of a human lung carcinoma); experiment: Cytotoxic activity screening, A-549 cells; conditions: three days of incubation, Crystal Violet; for IC50: Homo sapiens, A549, 72 h
Method: as §1
(§3) A separate set of cultures without drug was seeded as control growth to ensure that cells remained in exponential phase of growth. All determinations were carried out in duplicate. After three days of incubation at 37° C., 10% CO2 in a 98% humid atmosphere, the wells were stained with 0.1% Crystal Violet. An approximately IC50 was determined by comparing the growth in wells with drug to the growth in wells control.

[3] = test system: HT-29 (monolayer culture of a human colon carcinoma); experiment: Cytotoxic activity screening, HT-29 cells; conditions: three days of incubation, Crystal Violet; for IC50: Homo sapiens, HT-29, 72 h
Method: as §1, §3

[4] = test system: MEL-28 (monolayer culture of a human melanoma); experiment: Cytotoxic activity screening, MEL-28 cells; conditions: three days of incubation, Crystal Violet; for IC50: Homo sapiens, SK-MEL-28, 72 h
Method: as §1, §2
A-549, HT-29 and MEL-28 were seeded into 16 mm wells at 2×10^4 cells per well in 1 ml aliquots of MEM 10FCS containing the indicated concentration of drug. A separate set of cultures without drug was seeded as control growth to ensure that cells remained in exponential phase of growth. All determinations were carried out in duplicate. After three days of incubation at 37° C., 10% CO2 in a 98% humid atmosphere, the wells were stained with 0.1% Crystal Violet. An approximately IC50 was determined by comparing the growth in wells with drug to the growth in wells control.

DU-145 = experiment: Cytotoxic activity screening, DU-145 cells; conditions: for IC50: Homo sapiens, DU-145, DU-145 cells; for IC50 DU-145: DU-145 cells
Method: [The source words this procedure for another cell line and reports this cell line under the same test.] as §1, §2
Examples of biological activities of the compounds described in the present application are in Table IV (IC50 (ng/mL)) on the following pages.

[5] = approximate IC50, listed as 18a*

SMILES | IC50 [1] [ng/mL] | IC50 ([2]; approximate IC50) [ng/mL] | IC50 ([3]; approximate IC50) [ng/mL] | IC50 ([4]; approximate IC50) [ng/mL] | IC50 (DU-145) [ng/mL] | also measured
COc1c(C)cc2c(c1O)[C@@H]1C3[C@@H]4SC[C@H](OC(=O)/C=C/c5ccccc5)C(=O)OC[C@@H](c5c6c(c(C)c(OC(C)=O)c54)OCO6)N3[C@@H](O)[C@H](C2)N1C (some centres unmarked) [Compound 21h] | 1 (≈ 1.34 nM) | 1 (≈ 1.34 nM) | 1 (≈ 1.34 nM) | 1 (≈ 1.34 nM) | 1 (≈ 1.34 nM) | –
COc1c(C)cc2c(c1O)[C@@H]1C3[C@@H]4SC[C@H](NC(=O)C(NC(=O)C(C)NC(C)=O)C(C)C)C(=O)OC[C@@H](c5c6c(c(C)c(OC(C)=O)c54)OCO6)N3[C@@H](C#N)[C@H](C2)N1C (some centres unmarked) [Compound 3t] | 10 (≈ 12 nM) | 10 (≈ 12 nM) | 10 (≈ 12 nM) | 10 (≈ 12 nM) | 10 (≈ 12 nM) | –
CCCC(=O)O[C@H]1CS[C@@H]2c3c(OC(C)=O)c(C)c4c(c3[C@H](COC1=O)N1C2[C@H]2c3c(cc(C)c(OC)c3O)C[C@@H]([C@@H]1C#N)N2C)OCO4 (some centres unmarked) [Compound 17c] | 1 (≈ 1.44 nM) | 1 (≈ 1.44 nM) | 1 (≈ 1.44 nM) | 1 (≈ 1.44 nM) | 1 (≈ 1.44 nM) | –
COc1c(C)cc2c(c1O)[C@@H]1C3[C@@H]4SC[C@@H](OC(C)=O)C(=O)OC[C@@H](c5c6c(c(C)c(OC(C)=O)c54)OCO6)N3[C@@H](O)[C@H](C2)N1C (some centres unmarked) [Compound 21a] | 0.5 (≈ 0.761 nM) | 1 (≈ 1.52 nM) | 1 (≈ 1.52 nM) | 1 (≈ 1.52 nM) | 1 (≈ 1.52 nM) | –
COc1c(C)cc2c(c1O)[C@@H]1C3[C@@H]4SCC(NC(=O)C(N)C(C)C)C(=O)OC[C@@H](c5c6c(c(C)c(OC(C)=O)c54)OCO6)N3[C@@H](O)[C@H](C2)N1C (some centres unmarked) [Compound 4p] | 0.5 (≈ 0.701 nM) | 0.5 (≈ 0.701 nM) | 0.5 (≈ 0.701 nM) | 0.5 (≈ 0.701 nM) | 0.5 (≈ 0.701 nM) | –
COc1c(C)cc2c(c1O)[C@@H]1C3[C@@H]4SC[C@H](NC(=O)C(NC(C)=O)C(C)C)C(=O)OC[C@@H](c5c6c(c(C)c(OC(C)=O)c54)OCO6)N3[C@@H](O)[C@H](C2)N1C (some centres unmarked) [Compound 4q] | 1 (≈ 1.32 nM) | 1 (≈ 1.32 nM) | 1 (≈ 1.32 nM) | 1 (≈ 1.32 nM) | 1 (≈ 1.32 nM) | –
COc1c(C)cc2c(c1O)[C@@H]1C3[C@@H]4SC[C@H](NC(=O)c5ccccc5)C(=O)OC[C@@H](c5c6c(c(C)c(OC(C)=O)c54)OCO6)N3[C@@H](C#N)[C@H](C2)N1C (some centres unmarked) [Compound 3g] | 0.1 (≈ 0.138 nM) | 0.1 (≈ 0.138 nM) | 0.1 (≈ 0.138 nM) | 0.1 (≈ 0.138 nM) | 0.1 (≈ 0.138 nM) | –
COc1c(C)cc2c(c1O)[C@@H]1C3[C@@H]4SC[C@H](NC(=O)CCCCC5SCC6NC(=O)NC65)C(=O)OC[C@@H](c5c6c(c(C)c(OC(C)=O)c54)OCO6)N3[C@@H](C#N)[C@H](C2)N1C (some centres unmarked) [Compound 3k] | 10 (≈ 11.8 nM) | 10 (≈ 11.8 nM) | 5 (≈ 5.89 nM) | 5 (≈ 5.89 nM) | 5 (≈ 5.89 nM) | –
COc1c(C)cc2c(c1O)[C@@H]1C3[C@@H]4SC[C@H](NC(=O)C(NC(=O)C(C)N)C(C)C)C(=O)OC[C@@H](c5c6c(c(C)c(OC(C)=O)c54)OCO6)N3[C@@H](O)[C@H](C2)N1C (some centres unmarked) [Compound 4s] | 1 (≈ 1.28 nM) | 1 (≈ 1.28 nM) | 1 (≈ 1.28 nM) | 1 (≈ 1.28 nM) | 1 (≈ 1.28 nM) | –
COc1c(C)cc2c(c1O)[C@@H]1C3[C@@H]4SC[C@H](NC(=O)c5ccccc5)C(=O)OC[C@@H](c5c6c(c(C)c(OC(C)=O)c54)OCO6)N3[C@@H](O)[C@H](C2)N1C (some centres unmarked) [Compound 4g] | 0.1 (≈ 0.139 nM) | 0.5 (≈ 0.697 nM) | 0.5 (≈ 0.697 nM) | 0.5 (≈ 0.697 nM) | 0.5 (≈ 0.697 nM) | –
COc1c(C)cc2c(c1O)[C@@H]1C3[C@@H]4SC[C@H](NC(=O)C(NC(=O)C(C)NC(C)=O)C(C)C)C(=O)OC[C@@H](c5c6c(c(C)c(OC(C)=O)c54)OCO6)N3[C@@H](O)[C@H](C2)N1C (some centres unmarked) [Compound 4t] | 100 (≈ 121 nM) | 100 (≈ 121 nM) | 10 (≈ 12.1 nM) | 10 (≈ 12.1 nM) | 10 (≈ 12.1 nM) | –
COc1c(C)cc2c(c1O)[C@@H]1C3[C@@H]4SC[C@H](NC(=O)/C=C/c5ccccc5)C(=O)OC[C@@H](c5c6c(c(C)c(OC(C)=O)c54)OCO6)N3[C@@H](O)[C@H](C2)N1C (stereo in doubt) [Compound 4h] | 0.5 (≈ 0.672 nM) | 0.5 (≈ 0.672 nM) | 0.5 (≈ 0.672 nM) | 0.5 (≈ 0.672 nM) | 0.5 (≈ 0.672 nM) | –
COc1c(C)cc2c(c1O)[C@@H]1C3[C@@H]4SC[C@H](NC(=O)CCC(=O)O)C(=O)OC[C@@H](c5c6c(c(C)c(OC(C)=O)c54)OCO6)N3[C@@H](O)[C@H](C2)N1C (some centres unmarked) [Compound 4l] | 100 (≈ 140 nM) | 100 (≈ 140 nM) | 100 (≈ 140 nM) | 100 (≈ 140 nM) | 100 (≈ 140 nM) | –
COc1c(C)cc2c(c1O)[C@@H]1C3[C@@H]4SC[C@H](NC(=O)CC(C)C)C(=O)OC[C@@H](c5c6c(c(C)c(OC(C)=O)c54)OCO6)N3[C@@H](C#N)[C@H](C2)N1C (some centres unmarked) [Compound 3d] | 0.1 (≈ 0.141 nM) | 0.1 (≈ 0.141 nM) | 0.1 (≈ 0.141 nM) | 0.1 (≈ 0.141 nM) | 0.1 (≈ 0.141 nM) | –
COc1c(C)cc2c(c1O)[C@@H]1C3[C@@H]4SC[C@@H](OC(C)=O)C(=O)OC[C@@H](c5c6c(c(C)c(OC(C)=O)c54)OCO6)N3[C@@H](C#N)[C@H](C2)N1C (some centres unmarked) [Compound 17a] | – | – | – | – | – | IC50 P-388 [1]: 0.1 ng/mL (≈ 0.15 nM); IC50 A-549 ([2]; approximate IC50): 0.1 ng/mL (≈ 0.15 nM); IC50 HT-29 ([3]; approximate IC50): 0.1 ng/mL (≈ 0.15 nM); IC50 MEL-28 ([4]; approximate IC50): 0.1 ng/mL (≈ 0.15 nM); IC50 DU-145 (DU-145): 0.1 ng/mL (≈ 0.15 nM)
CCCCCCCC(=O)O[C@H]1CS[C@@H]2c3c(OC(C)=O)c(C)c4c(c3[C@H](COC1=O)N1C2[C@H]2c3c(cc(C)c(OC)c3O)C[C@@H]([C@@H]1O)N2C)OCO4 (some centres unmarked) [Compound 21e] | 1 (≈ 1.35 nM) | 1 (≈ 1.35 nM) | 1 (≈ 1.35 nM) | 1 (≈ 1.35 nM) | 1 (≈ 1.35 nM) | –
COc1c(C)cc2c(c1O)[C@@H]1C3[C@@H]4SC[C@@H](OC(C)=O)C(=O)OC[C@@H](c5c6c(c(C)c(OC(C)=O)c54)OCO6)N3[C@@H](C#N)[C@H](C2)N1C (some centres unmarked) [Compound 18a*] | – | – | – | – | – | IC50 P-388 ([1]; listed as 18a*): 1.0 ng/mL (≈ 1.5 nM); IC50 A-549 [2, 5]: 1.0 ng/mL (≈ 1.5 nM); IC50 HT-29 [3, 5]: 1.0 ng/mL (≈ 1.5 nM); IC50 MEL-28 [4, 5]: 1.0 ng/mL (≈ 1.5 nM); IC50 DU-145 (DU-145; listed as 18a*): 1.0 ng/mL (≈ 1.5 nM)
CCCC(=O)N[C@H]1CS[C@@H]2c3c(OC(C)=O)c(C)c4c(c3[C@H](COC1=O)N1C2[C@H]2c3c(cc(C)c(OC)c3O)C[C@@H]([C@@H]1C#N)N2C)OCO4 (some centres unmarked) [Compound 3c] | 0.1 (≈ 0.144 nM) | 0.1 (≈ 0.144 nM) | 0.1 (≈ 0.144 nM) | 0.1 (≈ 0.144 nM) | 0.1 (≈ 0.144 nM) | –
COc1c(C)cc2c(c1O)[C@@H]1C3[C@@H]4SC[C@H](NC(=O)C(N)C(C)C)C(=O)OC[C@@H](c5c6c(c(C)c(OC(C)=O)c54)OCO6)N3[C@@H](C#N)[C@H](C2)N1C (some centres unmarked) [Compound 3p] | 1 (≈ 1.39 nM) | 1 (≈ 1.39 nM) | 1 (≈ 1.39 nM) | 1 (≈ 1.39 nM) | 1 (≈ 1.39 nM) | –
